Assay: xn = mol fraction of the nth substance listed
Conditions: 81.5 kPa, Liquid; for speed of sound: Sing-around technique in a fixed-path interferometer; for mass density: Vibrating tube method

CCn1cc[n+](C)c1.F[B-](F)(F)F [1-ethyl-3-methylimidazolium tetrafluoroborate] + CN(C)C=O
Conditions	mass density [kg/m3]	speed of sound [m/s]
293.15 K, x1 = 0.0997	1019.18	1524.5
293.15 K, x1 = 0.2042	1075.44	1552.3
293.15 K, x1 = 0.2983	1116.82	1571.7
293.15 K, x1 = 0.4111	1157.47	1589.3
293.15 K, x1 = 0.5003	1184.76	1600.9
293.15 K, x1 = 0.585	1206.75	1609.6
293.15 K, x1 = 0.6965	1231.36	1618.8
293.15 K, x1 = 0.7833	1247.19	1625.5
293.15 K, x1 = 0.9134	1267.67	1633.1
293.15 K, x1 = 1	1285.95	1640.4
298.15 K, x1 = 0.0997	1014.69	1506.5
298.15 K, x1 = 0.2042	1071.12	1535.6
298.15 K, x1 = 0.2983	1112.62	1555.9
298.15 K, x1 = 0.4111	1153.38	1574.6
298.15 K, x1 = 0.5003	1180.74	1586.9
298.15 K, x1 = 0.585	1202.77	1596.1
298.15 K, x1 = 0.6965	1227.44	1605.9
298.15 K, x1 = 0.7833	1243.3	1612.9
298.15 K, x1 = 0.9134	1263.82	1620.9
298.15 K, x1 = 1	1282.14	1628.4
303.15 K, x1 = 0.0997	1010.19	1488.6
303.15 K, x1 = 0.2042	1066.81	1519
303.15 K, x1 = 0.2983	1108.42	1540.4
303.15 K, x1 = 0.4111	1149.29	1560.1
303.15 K, x1 = 0.5003	1176.72	1573
303.15 K, x1 = 0.585	1198.81	1582.7
303.15 K, x1 = 0.6965	1223.53	1593
303.15 K, x1 = 0.7833	1239.43	1600.5
303.15 K, x1 = 0.9134	1259.99	1608.8
303.15 K, x1 = 1	1278.34	1616
308.15 K, x1 = 0.0997	1005.7	1470.8
308.15 K, x1 = 0.2042	1062.49	1502.6
308.15 K, x1 = 0.2983	1104.23	1524.9
308.15 K, x1 = 0.4111	1145.23	1545.6
308.15 K, x1 = 0.5003	1172.72	1559.2
308.15 K, x1 = 0.585	1194.86	1569.4
308.15 K, x1 = 0.6965	1219.63	1580.3
308.15 K, x1 = 0.7833	1235.57	1588.2
308.15 K, x1 = 0.9134	1256.17	1596.9
308.15 K, x1 = 1	1274.55	1604.9
313.15 K, x1 = 0.0997	1001.2	1453.1
313.15 K, x1 = 0.2042	1058.19	1486.2
313.15 K, x1 = 0.2983	1100.05	1509.6
313.15 K, x1 = 0.4111	1141.17	1531.3
313.15 K, x1 = 0.5003	1168.73	1545.6
313.15 K, x1 = 0.585	1190.92	1556.3
313.15 K, x1 = 0.6965	1215.75	1567.7
313.15 K, x1 = 0.7833	1231.73	1576
313.15 K, x1 = 0.9134	1252.37	1585
313.15 K, x1 = 1	1270.78	1593.4
318.15 K, x1 = 0.0997	996.709	1435.6
318.15 K, x1 = 0.2042	1053.89	1470
318.15 K, x1 = 0.2983	1095.88	1494.4
318.15 K, x1 = 0.4111	1137.12	1517.1
318.15 K, x1 = 0.5003	1164.76	1532
318.15 K, x1 = 0.585	1187	1543.3
318.15 K, x1 = 0.6965	1211.89	1555.3
318.15 K, x1 = 0.7833	1227.91	1563.9
318.15 K, x1 = 0.9134	1248.58	1573.3
318.15 K, x1 = 1	1267.03	1582
323.15 K, x1 = 0.0997	992.209	1418.1
323.15 K, x1 = 0.2042	1049.59	1453.8
323.15 K, x1 = 0.2983	1091.72	1479.3
323.15 K, x1 = 0.4111	1133.08	1503
323.15 K, x1 = 0.5003	1160.79	1518.6
323.15 K, x1 = 0.585	1183.1	1530.4
323.15 K, x1 = 0.6965	1208.05	1542.9
323.15 K, x1 = 0.7833	1224.11	1551.9
323.15 K, x1 = 0.9134	1244.82	1561.7
323.15 K, x1 = 1	1263.3	1570.6
328.15 K, x1 = 0.0997	987.708	1400.7
328.15 K, x1 = 0.2042	1045.31	1437.8
328.15 K, x1 = 0.2983	1087.57	1464.2
328.15 K, x1 = 0.4111	1129.05	1489
328.15 K, x1 = 0.5003	1156.85	1505.2
328.15 K, x1 = 0.585	1179.21	1517.6
328.15 K, x1 = 0.6965	1204.22	1530.6
328.15 K, x1 = 0.7833	1220.32	1540
328.15 K, x1 = 0.9134	1241.07	1550.1
328.15 K, x1 = 1	1259.58	1559.4
333.15 K, x1 = 0.0997	983.204	1383.3
333.15 K, x1 = 0.2042	1041.01	1421.8
333.15 K, x1 = 0.2983	1083.42	1449.3
333.15 K, x1 = 0.4111	1125.03	1475
333.15 K, x1 = 0.5003	1152.91	1492
333.15 K, x1 = 0.585	1175.33	1504.8
333.15 K, x1 = 0.6965	1200.41	1518.4
333.15 K, x1 = 0.7833	1216.55	1528.2
333.15 K, x1 = 0.9134	1237.34	1538.7
333.15 K, x1 = 1	1255.88	1548.2
338.15 K, x1 = 0.0997	978.699	1366.1
338.15 K, x1 = 0.2042	1036.73	1405.9
338.15 K, x1 = 0.2983	1079.28	1434.5
338.15 K, x1 = 0.4111	1121.03	1461.2
338.15 K, x1 = 0.5003	1148.99	1478.9
338.15 K, x1 = 0.585	1171.47	1492.2
338.15 K, x1 = 0.6965	1196.61	1506.4
338.15 K, x1 = 0.7833	1212.8	1516.5
338.15 K, x1 = 0.9134	1233.63	1527.4
338.15 K, x1 = 1	1252.2	1537.2
343.15 K, x1 = 0.0997	974.184	1348.9
343.15 K, x1 = 0.2042	1032.45	1390.2
343.15 K, x1 = 0.2983	1075.15	1419.8
343.15 K, x1 = 0.4111	1117.03	1447.5
343.15 K, x1 = 0.5003	1145.07	1465.8
343.15 K, x1 = 0.585	1167.62	1479.7
343.15 K, x1 = 0.6965	1192.82	1494.4
343.15 K, x1 = 0.7833	1209.06	1504.9
343.15 K, x1 = 0.9134	1229.93	1516.1
343.15 K, x1 = 1	1248.54	1526.2
